As usually defined, the EC50 is the concentration that produces a half-maximal response.

Structures are written as SMILES.

The target in one experiment is T1, E. coli K12 PBP2 (Escherichia coli, UniProt P0AD65).
T1 construct: made in house
The experiment is described as follows: Bocillin-FL fluorescence polarization competition binding assay, E. coli PBP2. From the text: (§1) Example I: Experimental Method for Penicillin-Binding Protein Binding Assays with Bocillin-FL Via Fluorescence Polarization
(§2) To determine the ability of boronic acid-based test PBP inhibitors to bind Penicillin Binding Proteins (PBPs), Bocillin-FL (fluorescently-labeled penicillin V; ThermoFisher Scientific) was used in a fluorescence polarization (FP) competition binding assay to assess inhibitor binding to PBP2, PBP3 or PBP4 from Escherichia coli (K12), PBP3 from Pseudomonas aeruginosa (PA01), PBP1a, PBP2 and PBP3 from Acinetobacter baumannii (ATCC 19606), and PBP2 from Neiserria gonorrheae (FA19). PBPs were cloned and purified as described previously (E. coli PBPs, King, D. T, et al., ACS Infectious Diseases 2015, 1, 175-184; P. aeruginosa PBP3, Han et. al., PNAS 2010, 107 (51), 22002-22007; A. baumannii PBPs, Penwell et. al., Antimicrob. Agents Chemother. 2015, 59 (3), 1680-1689; N. gonorrhoeae PBP2, Singh et. al., J Biol. Chem. 2019, 294 (38), 14020-14032). To establish assay conditions for competition binding, enzyme titration/saturation binding experiments were initially performed. Bocillin-FL was prepared at 0.2 μM in a buffer comprised of 50 mM Hepes (pH 8.0), 300 mM NaCl and 5% (v/v) glycerol for reactions with E. coli, P. aeruginosa and N. gonorrhoeae PBPs, and 25 mM Tris (pH 8.0), 200 mM NaCl and 10% (v/v) glycerol and 0.005% (v/v) Tween 20 for reactions with A. baumannii PBPs. Saturation binding was performed by mixing 40 μl of PBP solutions ranging in concentrations from 0-24 μM with 40 μl of the 0.2 μM Bocillin-FL solution, in individual wells of a black 384-well microplate. FP was measured immediately upon mixing (Excitation, 490 nm; Emission, 520 nm; g-factor, 0.96), using a Cytation3 (BioTek) microplate reader and measured continuously for up to 120 minutes. […] Bocillin-FL was added and the FP immediately measured for up to 60 minutes (90 minutes for E. coli PBP2). […]
Background: Polarisation of emitted light reports the rotation of a fluorescent probe.

The next experiment addresses T2, E. coli K12 PBP4 (Escherichia coli, UniProt P24228).
T2 construct: made in house
The experiment is described as follows: Bocillin-FL fluorescence polarization competition binding assay, E. coli PBP4. Conditions: fluorescence polarization competition binding assay using Bocillin-FL; read-out: E. coli K12 PBP4 Potency (EC50).
From the text: as §1, §2

Another experiment concerns the target T3, E. coli K12 PBP1b (Escherichia coli, UniProt P02919).
T3 construct: made in house
The experiment is described as follows: Radioligand competition binding assay with 14C-labeled boronic acid probe, E. coli PBP1b. Conditions: competition binding assay using 14C-labeled boronic acid probe; read-out: E. coli K12 PBP1b EC50. From the text: Example II: Experimental Method to Assess Binding to Penicillin-Binding Proteins: Radioligand Competition Binding Assay
To determine the ability of boronic acid-based test PBP inhibitors to bind Penicillin Binding Proteins (PBPs), a radio-labelled boronic acid PBP inhibitor:
was used in competition binding assays to determine boronic acid PBP inhibitor binding to PBP1a or PBP1b from Escherichia coli. PBP1a and PBP1b were purified as described previously (Bertsche, U.; et al., J Biol. Chem. 2005, 280 (45), 38096-38101; Born, P.; et al., J Biol. Chem. 2006. 281 (37), 26985-26993). To establish assay conditions for competition binding, an enzyme titration/saturation binding experiment was performed. Saturation binding was performed in a buffer comprised of 20 mM Tris (pH 7.5), 500 mM NaCl and 0.1% (v/v) TritonX-100, with PBP1a/PBP1b at a final concentration of 0.1 μM and Compound A at final concentrations ranging from 0-100 μM. Mixtures were incubated for 60 minutes, then applied to Zeba Spin Desalting columns or plates (ThermoFisher Scientific) and centrifuged at 1000-1500×g for 2 minutes. The flow through, containing PBP bound with Compound A, was recovered and 100 μL mixed with 5 mL of UltimaGold liquid scintillation cocktail (Perkin Elmer), and the radioactivity counted using a Beckman Coulter LS 6500 Multipurpose scintillation counter. PBP binding of Compound A approached saturation at 20 μM of ^14C-labeled probe. The competition binding assay was validated using the beta-lactam ampicillin, with Compound A at a final concentration of 20 μM, PBP1a/PBP1b at a final concentration of 0.1 μM. PBP1a/PBP1b was incubated with ampicillin in a 96-well microplate for 60 minutes, then Compound A was added and the mixtures incubated for an additional 60 minutes. The mixtures were then applied to Zeba Spin desalting plates and centrifuged at 1000×g for 2 minutes. The flow through was recovered and 100 μl mixed with 5 ml of UltimaGold liquid scintillation cocktail and the radioactivity counted. […] Binding assays with boronic acid PBP inhibitors were performed in an identical fashion. […]
(In general: Displacement assays read how much labelled ligand stays bound in the presence of the test substance.)

T2 sequence (P24228 21-477): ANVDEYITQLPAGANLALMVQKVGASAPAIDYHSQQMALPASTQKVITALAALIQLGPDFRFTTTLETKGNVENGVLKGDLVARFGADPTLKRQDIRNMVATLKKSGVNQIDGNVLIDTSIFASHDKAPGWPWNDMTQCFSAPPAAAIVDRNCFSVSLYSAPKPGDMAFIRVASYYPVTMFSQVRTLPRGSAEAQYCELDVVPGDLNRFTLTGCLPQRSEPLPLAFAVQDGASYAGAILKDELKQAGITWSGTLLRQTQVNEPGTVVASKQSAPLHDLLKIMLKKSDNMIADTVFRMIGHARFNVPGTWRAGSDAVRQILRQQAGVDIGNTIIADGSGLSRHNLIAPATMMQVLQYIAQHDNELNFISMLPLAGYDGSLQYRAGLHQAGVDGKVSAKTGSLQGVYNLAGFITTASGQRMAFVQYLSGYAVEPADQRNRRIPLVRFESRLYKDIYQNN
T3 sequence (P02919 whole entry): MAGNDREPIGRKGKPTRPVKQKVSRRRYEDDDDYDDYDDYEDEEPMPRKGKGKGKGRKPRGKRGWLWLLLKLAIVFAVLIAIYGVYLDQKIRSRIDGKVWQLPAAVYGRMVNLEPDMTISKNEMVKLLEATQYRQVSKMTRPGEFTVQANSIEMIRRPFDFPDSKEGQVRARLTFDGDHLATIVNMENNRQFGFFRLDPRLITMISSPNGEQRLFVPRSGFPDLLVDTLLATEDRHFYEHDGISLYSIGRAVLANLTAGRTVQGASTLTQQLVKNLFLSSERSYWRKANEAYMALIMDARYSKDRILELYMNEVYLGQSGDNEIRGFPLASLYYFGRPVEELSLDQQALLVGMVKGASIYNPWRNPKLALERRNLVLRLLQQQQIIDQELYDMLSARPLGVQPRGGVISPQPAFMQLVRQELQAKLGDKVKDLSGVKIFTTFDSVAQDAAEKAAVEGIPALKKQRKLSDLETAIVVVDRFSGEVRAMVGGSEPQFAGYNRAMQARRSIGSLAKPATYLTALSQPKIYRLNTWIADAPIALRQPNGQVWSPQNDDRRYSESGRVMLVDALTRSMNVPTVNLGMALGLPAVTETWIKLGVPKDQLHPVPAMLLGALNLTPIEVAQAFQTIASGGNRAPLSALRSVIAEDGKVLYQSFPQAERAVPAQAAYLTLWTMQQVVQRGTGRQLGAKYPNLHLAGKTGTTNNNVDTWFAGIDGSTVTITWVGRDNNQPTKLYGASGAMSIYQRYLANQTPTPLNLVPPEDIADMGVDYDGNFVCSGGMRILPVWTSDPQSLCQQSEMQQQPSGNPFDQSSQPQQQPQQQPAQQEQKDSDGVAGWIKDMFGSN
T1 sequence (P0AD65 whole entry): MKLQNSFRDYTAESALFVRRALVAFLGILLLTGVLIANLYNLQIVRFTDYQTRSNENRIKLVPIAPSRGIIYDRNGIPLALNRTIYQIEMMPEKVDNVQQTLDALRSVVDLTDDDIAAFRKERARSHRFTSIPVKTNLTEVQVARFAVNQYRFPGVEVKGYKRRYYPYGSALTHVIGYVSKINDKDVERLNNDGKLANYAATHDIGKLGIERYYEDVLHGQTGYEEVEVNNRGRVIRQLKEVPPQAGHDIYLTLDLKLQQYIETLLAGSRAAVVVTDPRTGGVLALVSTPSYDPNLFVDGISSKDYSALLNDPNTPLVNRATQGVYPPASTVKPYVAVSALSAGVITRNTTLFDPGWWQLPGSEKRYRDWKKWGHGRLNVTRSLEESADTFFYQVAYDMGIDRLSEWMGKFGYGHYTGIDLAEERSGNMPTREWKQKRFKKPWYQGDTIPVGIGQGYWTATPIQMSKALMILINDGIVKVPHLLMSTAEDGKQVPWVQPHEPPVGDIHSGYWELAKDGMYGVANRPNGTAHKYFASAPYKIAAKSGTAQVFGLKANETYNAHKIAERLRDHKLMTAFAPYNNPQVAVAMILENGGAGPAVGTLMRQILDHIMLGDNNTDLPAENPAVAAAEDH

On to `CCN1CCN(C(=O)NC(C(=O)N[C@H]2Cc3ccc(S)c(C(=O)O)c3OB2O)c2csc(N)n2)C(=O)C1=O` (stereo partly drawn) [Example 54, (3R)-3-(2-(2-aminothiazol-4-yl)-2-(4-ethyl-2,3-dioxopiperazine-1-carboxamido)acetamido)-2-hydroxy-7-mercapto-3,4-dihydro-2H-benzo[e][1,2]oxaborinine-8-carboxylic acid], for which the concentration for a half-maximal effect (EC50) on E. coli K12 PBP2 fell in the range of 30 to 500 µM; at E. coli K12 PBP4, 30 to 500 µM; at E. coli K12 PBP1b it was 10 to 100 µM.
As for `CCN1CCN(C(=O)NC(C(=O)N[C@H]2Cc3ccc(SCc4ccc(O)cc4)c(C(=O)O)c3OB2O)c2csc(N)n2)C(=O)C1=O` (stereo partly drawn) [Example 55, (3R)-3-(2-(2-aminothiazol-4-yl)-2-(4-ethyl-2,3-dioxopiperazine-1-carboxamido)acetamido)-2-hydroxy-7-((4-hydroxybenzyl)thio)-3,4-dihydro-2H-benzo[e][1,2]oxaborinine-8-carboxylic acid], the EC50 on E. coli K12 PBP2 was 30 to 500 µM; on E. coli K12 PBP4, 30 to 500 µM; at E. coli K12 PBP1b it was more than 100 µM.

The record behind these values is patent US20230114728A1 (Venatorx Pharmaceuticals, Inc., priority 2019, published 2023).
